Test results reported in patent US20210113586A1, “NEW USE AND METHODS OF MODULATING IMMUNE RESPONSES” (DIAMYD MEDICAL AB, priority 2018, published 2021).

Assays:
Assay type in all cases: cell-based, human
responder CD4+ T cells [1] = assay: Proliferation of anti-CD3 stimulated GABA responder CD4+ T cells from ND individuals; conditions: for effect of agonist on proliferation: 100 nM, FIG. 3f
Procedure: (§1) Peripheral Blood Mononuclear cells (PBMCs) are isolated from blood from donors diagnosed with Type-1 diabetes and healthy controls. Alternatively, CD4-positive cells (T-cells) are further isolated from PBMCs by e.g. MACS beads, FACS or similar technology. […] A reasonable replication, such as 3 cultures of each condition, is performed. A normalized proliferation value for each culture is then calculated by a standard proliferation measurement method, such as by CFSE staining or radioactive thymidine incorporation (requiring additional factors be added during culture) or by staining for proliferation markers.
(§2) In the FIG. 1, the proliferation of cells retrieved from 13 T1D subjects and 15 healthy controls were inspected. […] A normalized proliferation index was calculated for each culture.
(§3) The proliferation of freshly isolated human PBMCs or CD4^+ T cells was evaluated with MTT (3-(4,5-Dimethylthiazol-2-yl)-2,5-Diphenyltetrazolium Bromide) assay (Ring et al., 2012). Cells were suspended in complete medium (RPMI 1640 supplemented with 2 mM glutamine, 25 mM HEPES, 10% heat inactivated fetal bovine serum, 100 U/ml penicillin, 10 mg/ml streptomycin, 5 mM R-mercaptoethanol) in a concentration 1 million cells per milliliter. The assay was performed in 96-well plates in duplicates or triplicates, where each well was pre-coated with 3 μg/ml anti-CD3 antibody for 3-5 h at 37° C. Each well was loaded with 100,000 cells. Drugs were added to the wells at the relevant concentrations. The plate was incubated for 68 h at 37° C. (95% O2, 5% CO2) and then, a media-soluble tetrazolium dye MTT was added to a final concentration of 1 mM after which the plate was incubated for additional 4 h. The plate was then centrifuged at 2,000 RPM for 10 min to pellet the insoluble purple formazan crystals. The supernatant culture media was collected, stored at −80° C. and used for analysis of cytokines using the multiplex proximity extension assay (PEA). The formazan crystal pellet was dissolved in DMSO and the plate was read within 10 min using a Multiskan MS plate reader (Labsystems) at 550 nm. The optical density value was used as the proliferation index value. Drugs were purchased from Sigma-Aldrich or Tocris (Bristol, UK).

[2] = test system: PBMCs from T1D individuals; assay: Proliferation of anti-CD3 stimulated PBMCs from T1D donors; conditions: GABA plus picrotoxin
Procedure: as §1, §2
as §3, with “The optical density value was used as the proliferation index value. Drugs were purchased from Sigma-Aldrich or Tocris (Bristol, UK).” left out

GABAA receptors = assay: Patch-clamp single-channel current recording in CD4+ T cells; conditions: picrotoxin 100 μM; FIG. 3i
Procedure: GABA-activated currents were recorded by the patch-clamp technique as previously described (Bjurstom et al., 2008, Jin et al., 2011a). Extracellular recording solution contained (in mM): 145 NaCl, 3 KCl, 1 CsCl, 1 CaCl2, 1 MgCl2, 10 glucose and 10 TES; the pH was adjusted to 7.4 with NaOH. To record in the whole-cell configuration, the pipette solution contained (in mM): 136 CsCl, 20 KCl, 1 MgCl2, 3 MgATP and 10 TES; pH was adjusted to 7.3 with CsOH. The pipette solution for the cell-attached configuration contained (in mM): 69 NaCl, 5 KCl, 75 CsCl, 1 CaCl2, 1 MgCl2 and 10 TES; pH was adjusted to 7.4 with NaOH. […] The pipette potential (Vp) was −80 mV (hyperpolarizing) in the whole-cell configuration and −60 mV (depolarizing) in the cell-attached configuration.

responder CD4+ T cells [3] = assay: Multiplex PEA of cytokines released into culture medium by responder CD4+ T cells; conditions: GABA plus 100 μM picrotoxin
Procedure: as §3
Plasma samples, and culture media samples that were collected from plate wells at the end of the proliferation assay, were analyzed by multiplex PEA with an Olink Inflammation […] panel, targeting 92 proteins related to inflammation (Olink Proteomics, Uppsala, Sweden) as previously described (Edvinsson et al., 2017, Assarsson et al., 2014, Larsson et al., 2015, Larssen et al., 2017). Briefly, 1 μl of sample (plasma samples or cell culture media samples) or negative control was mixed with 3 μl probe solution containing a set of 92 paires DNA-oligonucleotide-conjugated antibodies. Upon recognition of a target protein by a pair of probes, the DNA oligonucletodies on the antibodies are brought in proximity and hybridize to each other, followed by enzymatic DNA polymerization to form a new DNA molecule. The newly formed DNA molecule is then amplified and quantified using a microfluidic real-time qPCR, BioMark™ HD (Fluidigm, South San Francisco, Calif., USA). The generated quantification cycle (Cq) values are normalized against spiked-in controls to convert Cq values to Normalized Protein eXpression (NPX) value on log2 scale. NPX is an arbitrary unit, which is positively correlated to protein concentration. These NPX data were then converted to linear data, using the formula 2^NPX, prior to further statistical analysis. Limit of detection (LOD) for each protein was defined as three standard deviations above the background. Proteins with levels below LOD were excluded from further data analysis.

[4] = FIG. 5b-c legend, GABA concentration and cell group not given

## CCOC(OCC)P(=O)(O)CCCNCc1ccc(Cl)c(Cl)c1 [CGP52432]
Responder CD4+ T cells [1]; 50 μM, FIG. 3e
  effect of antagonist on proliferation: ineffective

## NC/C=C/C(=O)O [TACA]
Responder CD4+ T cells [1]
  effect of agonist on proliferation: inhibited the proliferation similar to GABA

## NCC(CC(=O)O)c1ccc(Cl)cc1 (stereo not shown) [baclofen]
Responder CD4+ T cells [1]
  effect of agonist on proliferation: ineffective

## NCc1cc(=O)[nH]o1 [muscimol]
Responder CD4+ T cells [1]
  effect of agonist on proliferation: inhibited the proliferation similar to GABA

## picrotoxin [reference compound]
[2]; Example 1, FIG. 1D
  effect on GABA-reduced proliferation: reversed
[2]; Example 2, FIG. 3b
  effect on GABA inhibition of proliferation: reversed
Responder CD4+ T cells [1]; Example 1, FIG. 1B, GABA plus picrotoxin
  effect on GABA-reduced proliferation: reversed
Responder CD4+ T cells [1]; picrotoxin, FIG. 3e
  effect on 500 nM GABA-induced inhibition of proliferation: partially reversed
GABAA receptors
  effect on GABA-activated single-channel currents: blocked
Responder CD4+ T cells [3]; [4]
  CCL19, 2^NPX normalized to controls, mean and SEM: 1.72±0.74
  CCL20, 2^NPX normalized to controls, mean and SEM: 1.43±0.51
  CXCL11, 2^NPX normalized to controls, mean and SEM: 1.55±0.51
Responder CD4+ T cells [3]; FIG. 5b, c
  effect on GABA inhibition of cytokine release: reversed
